# Reference: patent US11981661B2, “Heterocyclic compounds” (Hoffmann-La Roche Inc., priority 2020, dated 2024)
# Target: T1, MAGL (Homo sapiens, UniProt Q99685)
# T1 sequence (Q99685 1-303): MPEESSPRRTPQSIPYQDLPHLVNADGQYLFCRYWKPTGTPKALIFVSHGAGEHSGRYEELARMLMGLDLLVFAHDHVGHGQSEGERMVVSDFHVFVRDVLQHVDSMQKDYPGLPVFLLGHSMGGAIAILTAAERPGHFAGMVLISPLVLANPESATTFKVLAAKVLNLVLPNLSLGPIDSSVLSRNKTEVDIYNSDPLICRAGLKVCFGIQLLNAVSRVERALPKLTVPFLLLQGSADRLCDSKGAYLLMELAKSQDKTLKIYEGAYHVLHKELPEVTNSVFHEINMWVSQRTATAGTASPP
# Assay: 2-AG assay (MAGL inhibitory activity, hydrolysis of 2-arachidonoylglycerol followed by mass spectrometry)
# Type: biochemical
# Conditions: 50 pM MAGL, 8 μM 2-arachidonoylglycerol, 15 min preincubation, 30 min incubation at RT, concentration range 12.5 μM to 0.8 pM
# Summary of the method: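 Activity derived from the arachidonic acid/d8-arachidonic acid MS intensity ratio after acetonitrile quench. Reaction: 8 μM 2-AG substrate with 50 pM MAGL, 30 min at RT, following 15 min RT compound preincubation; buffer 50 mM TRIS, 1 mM EDTA, 0.01% Tween; final compound range 12.5 μM to 0.8 pM.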
row,IC50 [nM],SMILES
1,350,"O=C1N[C@H](CCC(=O)N2CC3(C2)CN(S(=O)(=O)c2ccc(F)cc2C(F)(F)F)C3)CO1 [Example 97, (4R)-4-[3-[2-[4-Fluoro-2-(trifluoromethyl)phenyl]sulfonyl-2,6-diazaspiro[3.3]heptan-6-yl]-3-oxo-propyl] oxazolidin-2-one]"
2,3370,"CC(C)(C)CS(=O)(=O)N1CC2(CN(C(=O)CC[C@@H]3COC(=O)N3)C2)C1 [Example 98, (4R)-4-[3-[2-(2,2-Dimethylpropyl-sulfonyl)-2,6-diazaspiro[3.3]heptan-6-yl]-3-oxo-propyl]oxazolidin-2-one]"
3,5,"O=C1N[C@H](CCC(=O)N2CC(c3ccc(N4CC(OCC(F)(F)F)C4)cc3)C2)CO1 [Example 99, (4R)-4-[3-Oxo-3-[3-[4-[3-(2,2,2-trifluoro-ethoxy)azetidin-1-yl]phenyl]azetidin-1-yl]propyl] oxazolidin-2-one]"
4,7,"O=C1N[C@H](CCC(=O)N2CC(c3ccc(N4CC(C(F)(F)F)C4)cc3)C2)CO1 [Example 100, (4R)-4-[3-Oxo-3-[3-[4-[3-(trifluoromethyl)azetidin-1-yl]phenyl]azetidin-1-yl]propyl]oxazolidin-2-one]"
5,481,"O=C1N[C@H](CCC(=O)N2CC(c3cnc(C4(C(F)(F)F)CC4)nc3)C2)CO1 [Example 101, (4R)-4-[3-Oxo-3-(3-[2-[1-(trifluoro-methyl)cyclopropyl]pyrimidin-5-yl]azetidin-1-yl]propyl]oxazolidin-2-one]"
6,420,"O=C1N[C@H](CCC(=O)N2CC(c3ccc(C4(C(F)(F)F)CC4)nc3)C2)CO1 [Example 102, (4R)-4-[3-Oxo-3-[3-[6-[1-(trifluoro-methyl)cyclopropyl]-3-pyridyl]azetidin-1-yl]propyl]oxazolidin-2-one]"
7,54,"O=C1N[C@H](CCC(=O)N2CC(c3ccc(N4CCC(C(F)(F)F)C4)cn3)C2)CO1 (stereo partly drawn) [Example 103, (4R)-4-[3-Oxo-3-[3-[5-[3-(trifluoro-methyl)pyrrolidin-1-yl]-2-pyridyl]azetidin-1-yl]propyl]oxazolidin-2-one]"
8,177,"CS(=O)(=O)CC1CN(c2ccc(C3CN(C(=O)CC[C@@H]4COC(=O)N4)C3)cc2)C1 [Example 104, (4R)-4-[3-[3-[4-[3-(Methyl-sulfonylmethyl)azetidin-1-yl]phenyl]azetidin-1-yl]-3-oxo-propyl]oxazolidin-2-one]"
9,43,"O=C1N[C@H](CCC(=O)N2CC(c3cnc(N4CCC(C(F)(F)F)C4)cn3)C2)CO1 (stereo partly drawn) [Example 105, (4R)-4-[3-Oxo-3-[3-[5-[3-(trifluoro-methyl)pyrrolidin-1-yl]pyrazin-2-yl]azetidin-1-yl]propyl] oxazolidin-2-one]"
10,729,"O=C1N[C@H](CCC(=O)N2CC(c3ncc(N4CCC(C(F)(F)F)C4)cn3)C2)CO1 (stereo partly drawn) [Example 106, (4R)-4-[3-Oxo-3-[3-[5-[3-(trifluoro-methyl)pyrrolidin-1-yl]pyrimidin-2-yl]azetidin-1-yl]propyl]oxazolidin-2-one]"
11,216,"O=C1N[C@H](CCC(=O)N2CC(c3cnc(N4CCC(C(F)(F)F)C4)nc3)C2)CO1 (stereo partly drawn) [Example 107, (4R)-[3-Oxo-3-[3-[2-[3-(trifluoro-methyl)pyrrolidin-1-yl]pyrimidin-5-yl]azetidin-1-yl]propyl]oxazolidin-2-one]"
12,7,"CS(=O)(=O)c1ccc(-c2ccc(C3CN(C(=O)CC[C@@H]4COC(=O)N4)C3)nc2)c(Cl)c1 [Example 108, (4R)-4-[3-[3-[5-(2-Chloro-4-methylsulfonyl-phenyl)-2-pyridyl]azetidin-1-yl]-3-oxo-propyl]oxazolidin-2-one]"
13,39,"O=C1N[C@H](CCC(=O)N2CC(c3cccc(C4(C(F)(F)F)CC4)c3)C2)CO1 [Example 109, (4R)-4-[3-Oxo-3-[3-[3-[1-(trifluoromethyl)cyclopropyl]phenyl]azetidin-1-yl]propyl]oxazolidin-2-one]"
14,70,"CS(=O)(=O)c1ccc(-c2cnc(C3CN(C(=O)CC[C@@H]4COC(=O)N4)C3)cn2)c(Cl)c1 [Example 110, (4R)-4-[3-[3-[5-(2-Chloro-4-methylsulfonyl-phenyl)pyrazin-2-yl]azetidin-1-yl]-3-oxo-propyl]oxazolidin-2-one]"
15,1170,"CC(C)(C)S(=O)(=O)c1ccc(C2CN(C(=O)CC[C@@H]3COC(=O)N3)C2)cn1 [Example 111, (4R)-4-[3-[3-(6-tert-Butylsulfonyl-3-pyridyl)azetidin-1-yl]-3-oxo-propyl]oxazolidin-2-one]"
16,43,"O=C1N[C@H](CCC(=O)N2CC(c3ncc(-c4ccc(Cl)cc4F)cn3)C2)CO1 [Example 112, (4R)-4-[3-[3-[5-(4-Chloro-2-fluoro-phenyl)pyrimidin-2-yl]azetidin-1-yl]-3-oxo-propyl]oxazolidin-2-one]"

row,IC50 [nM],SMILES
1,3,"O=C1N[C@H](CCC(=O)N2CC(c3ccc(-c4ccc(Cl)cc4F)cn3)C2)CO1 [Example 113, (4R)-4-[3-[3-[5-(4-Chloro-2-fluoro-phenyl)-2-pyridyl]azetidin-1-yl]-3-oxo-propyl]oxazolidin-2-one]"
2,0.18,"O=C1N[C@H](CCC(=O)N2CC(c3ccc(-c4ccc(Cl)cc4Cl)cn3)C2)CO1 [Example 114, (4R)-4-[3-[3-[5-(2,4-Dichloro-phenyl)-2-pyridyl]azetidin-1-yl]-3-oxo-propyl]oxazolidin-2-one]"
3,3,"CS(=O)(=O)c1cc(Cl)cnc1-c1ccc(C2CN(C(=O)CC[C@@H]3COC(=O)N3)C2)cc1 [Example 115, (4R)-4-[3-[3-[4-(5-Chloro-3-methylsulfonyl-2-pyridyl)phenyl]azetidin-1-yl]-3-oxo-propyl]oxazolidin-2-one]"
4,160,"CS(=O)(=O)c1ccc(-c2ccc(C3CN(C(=O)CC[C@@H]4COC(=O)N4)C3)cn2)c(Cl)c1 [Example 116, (4R)-4-[3-[3-[6-(2-Chloro-4-methylsulfonyl-phenyl)-3-pyridyl]azetidin-1-yl]-3-oxo-propyl]oxazolidin-2-one]"
5,10,"CS(=O)(=O)c1cc(Cl)ccc1-c1ccc(C2CN(C(=O)CC[C@@H]3COC(=O)N3)C2)cn1 [Example 117, (4R)-4-[3-[3-[6-(4-Chloro-2-methylsulfonyl-phenyl)-3-pyridyl]azetidin-1-yl]-3-oxo-propyl]oxazolidin-2-one]"
6,12,"CS(=O)(=O)c1cc(Cl)ncc1-c1ccc(C2CN(C(=O)CC[C@@H]3COC(=O)N3)C2)cc1 [Example 118, (4R)-4-[3-[3-[4-(6-Chloro-4-methylsulfonyl-3-pyridyl)phenyl]azetidin-1-yl]-3-oxo-propyl] oxazolidin-2-one]"
7,33,"O=C1N[C@H](CCC(=O)N2CC(c3ccc(-c4cnc(C(F)(F)F)cn4)cc3)C2)CO1 [Example 119, (4R)-4-[3-Oxo-3-[3-[4-[5-(trifluoromethyl)pyrazin-2-yl]phenyl]azetidin-1-yl]propyl] oxazolidin-2-one]"
8,19,"CS(=O)(=O)c1cc(C2CN(C(=O)CC[C@@H]3COC(=O)N3)C2)ccc1-c1ccc(Cl)cc1F [Example 120, (4R)-4-[3-[3-[4-(4-Chloro-2-fluoro-phenyl)-3-methylsulfonyl-phenyl]azetidin-1-yl]-3-oxo-propyl]oxazolidin-2-one]"
9,2,"CS(=O)(=O)c1cc(Cl)ccc1-c1ccc(C2CN(C(=O)CC[C@@H]3COC(=O)N3)C2)nc1 [Example 121, (4R)-4-[3-[3-[5-(4-Chloro-2-methylsulfonyl-phenyl)-2-pyridyl]azetidin-1-yl]-3-oxo-propyl]oxazolidin-2-one]"
10,379,"CS(=O)(=O)c1ccc(-c2cnc(C3CN(C(=O)CC[C@@H]4COC(=O)N4)C3)nc2)c(Cl)c1 [Example 122, (4R)-4-[3-[3-[5-(2-Chloro-4-methylsulfonyl-phenyl)pyrimidin-2-yl]azetidin-1-yl]-3-oxo-propyl] oxazolidin-2-one]"
11,982,"CS(=O)(=O)c1ccc(-c2ncc(C3CN(C(=O)CC[C@@H]4COC(=O)N4)C3)cn2)c(Cl)c1 [Example 123, (4R)-4-[3-[3-[2-(2-Chloro-4-methylsulfonyl-phenyl)pyrimidin-5-yl]azetidin-1-yl]-3-oxo-propyl] oxazolidin-2-one]"
12,3,"CS(=O)(=O)c1ncc(C(F)(F)F)cc1-c1ccc(C2CN(C(=O)CC[C@@H]3COC(=O)N3)C2)cc1 [Example 124, (4R)-4-[3-[3-[4-[2-Methyl-sulfonyl-5-(trifluoromethyl)-3-pyridyl]phenyl]azetidin-1-yl]-3-oxo-propyl] oxazolidin-2-one]"
13,9,"O=C1N[C@H](CCC(=O)N2CC3(CC(Cc4ccc(C(F)(F)F)nc4)C3)C2)CO1 [Example 125, (4R)-4-[3-Oxo-3-[6-[[6-(trifluoro-methyl)-3-pyridyl]methyl]-2-azaspiro[3.3]heptan-2-yl]propyl] oxazolidin-2-one]"
14,25,"O=C1N[C@H](CCC(=O)N2CC3(CCN(Cc4ccc(C(F)(F)F)cc4F)CC3)C2)CO1 [Example 126, (4R)-4-[3-[7-[[2-Fluoro-4-(trifluoro-methyl)phenyl]methyl]-2,7-diazaspiro[3.5]nonan-2-yl]-3-oxo-propyl] oxazolidin-2-one]"
15,1800,"O=C1N[C@H](CCC(=O)N2CC(c3ccc(Oc4nccc(C(F)(F)F)n4)cc3)C2)CO1 [Example 127, (4R)-4-[3-Oxo-3-[3-[4-[4-(trifluoro-methyl)pyrimidin-2-yl]oxyphenyl]azetidin-1-yl]propyl]oxazolidin-2-one]"
